For this assay, the system named is carcinoid syndrome and/or at least one neuroendocrine tumor. As to the kind of experiment: treatment of a human patient with epothilone B (Example 1). The class given is in vivo. As to the method: A human patient experiencing 3 loose bowel movements each day, frequent nausea and anorexia presented a plasma serotonin level of 361 ng/ml and an octreotide scan showing foci of abnormal activity in the pelvis, liver, upper chest and neck. They received 2.5 mg/m^2 of epothilone B weekly every 3 of 4 weeks.

Regarding `C/C(=C\c1csc(C)n1)[C@@H]1C[C@@H]2O[C@]2(C)CCC[C@H](C)[C@H](O)[C@@H](C)C(=O)C(C)(C)[C@@H](O)CC(=O)O1` [epothilone B], the octreotide scan result is, setting by setting: (2.5 mg/m^2 weekly every 3 of 4 weeks, after 6 doses plus further about two months) “no evidence of disease”; (2.5 mg/m^2 weekly every 3 of 4 weeks, after 6 doses, before treatment foci in pelvis, liver, upper chest and neck) “minimal focus of activity in the pelvis alone”. Also, the “tumor burden of the patient” value (conclusion drawn from the observations in Example 1 ('make it likely')) is “significantly decreased”. Further, for the setting “patient, 2.5 mg/m^2 weekly every 3 of 4 weeks, 6 doses plus further about two months, level before treatment 361 ng/ml, within normal limits”, the plasma serotonin level came to 62 ng/mL.

These data come from patent US20090246172A1, “COMPOSITIONS COMPRISING EPOTHILONES AND THEIR USE FOR THE TREATMENT OF CARCINOID SYNDROME” (priority 2001, published 2009).
